Measurements as given in patent publication US20060148714A1, “Therapeutic peptide-based constructs” (priority 1999, published 2006).
In brackets after ≈: the same amount, converted by molar mass. Where a SMILES comes first, the peptide text is derived from it. [ ]: non-standard residue; d: D form. d1Nal = N[C@H](Cc1cccc2ccccc12)C(=O)O

Tests used:
[1] = system: Factor Xa neutralization by ATIII/heparin complexes; test: Chromostrate heparin anti-Factor Xa assay (heparin neutralization); type: biochemical; conditions: absorbance at 405 nm
Protocol: A Chromostrate™ assay was used to determine the effect of peptide-based constructs, including derivatized constructs, and the effect protamine sulfate (as a positive control) on Factor Xa neutralization by ATIII/heparin complexes. The assay was conducted using a Chromostrate™ heparin anti-Factor Xa assay kit (Organon Teknika Corp., Durham, N.C.). Heparin concentration was varied so that a heparin standard curve was generated. The assay measured the potentiating effect of heparin on anti-Xa activity in vitro. Solution containing heparin is incubated in the presence of ATIII with an excess of Factor Xa, forming an ATIII-Heparin-Xa complex. The remaining Xa catalyzes the release of p-nitroaniline (pNA) from the chromogenic substrate. The release of p-nitroaniline is measured at 405 nm. The absorbance obtained in inversely porportional to the concentration of heparin in the sample.
Reagents for the assay are prepared as follows. Heparin, peptide-based constructs and protamine sulfate stocks are made in saline. Stock solutions are approximately 1 mg/mL=1 μg/μL. Factor Xa reagent and substrate reagent are reconstituted with 2.0 mL purified water. Antithrombin III (ATIII) reagent is reconstituted with 1.0 mL purified water. The assay is performed in 96 well microtiter plates. Assay components are added to the microtiter wells as follows: 12.5 μl of heparin (from 0 to 10 U/mL), 25 μl of construct or protamine sulfate, 12.5 μL of ATIII (0.5 PEU/mL), 25 μL of bovine Factor Xa (14 nKat/mL), 25 μL substrate (3 μmoles/mL). The reaction is allowed to proceed for 20 minutes and then 25 μL of 0.1 M acetic acid is added. The color reaction is quantitated on a microplate reader at 405 nm. Constructs that neutralize heparin show an increase in the absorbance at 405 nm. Protamine is used as a positive control and its activity is designated as 100%. The percent (%) heparin neutralization for each peptide construct is calculated relative to the neutralization by protamine (100%), and shown in Table IV.

[2] = system: E. coli (J5 and 0111 B4), Staphylococcus aureus and Candida albicans; test: Broth and/or radial diffusion antimicrobial assays; type: cell-based
Source text: Assays useful for testing a variety of biological activities of BPI protein products, including BPI-derived peptides, are described in co-owned U.S. Pat. Nos. 5,733,872; 5,763,567; 5,652,332; and 5,856,438 and corresponding PCT Publication Nos. WO 94/20532 (PCT/US94/02465) and WO 95/19372 (PCT/US94/10427) and U.S. Pat. No. 5,858,974 and corresponding PCT Publications Nos. WO 96/08509 (PCT/US95/09262) and WO 97/04008 (PCT/US96/03845), incorporated herein by reference. These activities include antimicrobial (including antibacterial and antifungal), LPS binding, LPS neutralization and additional assays of heparin binding as well as heparin neutralization.

LPS = test: RAW cell assay of LPS neutralization; type: cell-based
[3] = system: human umbilical vein endothelial cells (HUVEC); type: cell-based; conditions: for IC50: 72 h
Protocol: Briefly, human umbilical vein endothelial cells (HUVEC) were cultured in EGM-2 medium (Clonetics Corp., San Diego, Calif.), harvested and plated onto a 96-well culture plate. After 24 hours of quiescence, the cells were co-cultured with various peptide-based constricts in the presence of growth factors for 72 hours to test their activity. Cell proliferation was quantitated by tritiated thymidine incorporation into DNA and was expressed in counts per minute (cpm).
Details of the experimental procedures were as follows: HUVEC cells were cultured in EGM-2 media from Clonetics Corp., a subsidiary of BioWhittaker, Inc., San Diego, Calif. [EGM-2 is Endothelial Cell Basal Medium-2 (EMB-2) supplemented with growth factors (hFGF-B, VEGF, IGF-1, hEGF) ascorbic acid, heparin, GA-1000 and 2% FBS), in T75 flasks until confluent (˜4-7 days). Cells were harvested by trypsinizing the cells using 0.025% trypsin/EDTA for 5 minutes. To stop the reaction, 2-5% FBS was added. The cells were centrifuged and washed 3 times using Hank's Balanced Salt Solution (HBSS) or Dulbecco's Phosphate Buffered Saline D-PBS. The pellet was then resuspended in EBM-2 supplemented with 0.1% FBS and GA-1000 was used. The cells were counted and a cell suspension was prepared at 2×10^5/mL in EBM-2 with 0.1% FBS; cells were dispensed into a 96-well flat bottomed culture plate at 0.1 mL/well (total: ˜20,000 cells/well in 0.1% FBS-EBM-2). Incubation continued at 37° C. in 5% CO2 for 20-24 hours. The next day peptide-based constructs were prepared for testing in a 96 well plate. The supernatant was aspirated from the cell-well, replaced with EBM-2 or the testing reagent at 20 μL/well. Then, 180 μL/well of 1.12% FBS-GFS were added to make a final concentration of 1% FBS-GFS in EBM-2. This aspiration and addition was done well-by-well. ^3H-thymidine (100 μCi/mL) was added at 10 μL/well (1 μCi/well, final). Incubation continued at 37° C., 5% CO2 for 72 hours. To harvest the plate, the supernatant was aspirated off from the cell-well and then 75 μL-100 μL/well of 0.025% trypsin-EDTA was added. After incubation for 8-10 minutes at room temperature in the hood, the cells were checked and 100 μL/well of 2-5% FBS-PBS was added to stop the reaction. The plate was then harvested, dried and counted using an Inotech cell harvester (Inotech Biosystems, INB-384, Sample Processing and Filter Counting System, Lansing, Mich.).

[4] = system: bFGF-induced angiogenesis; test: In vivo Matrigel angiogenesis assay (hemoglobin content of excised gel); conditions: 10 μg peptide construct per gel; hemoglobin of gel excised ten days after s.c. injection; C57BL/6J mice
Protocol: For these experiments, peptide-based constructs according to the invention were assayed for their ability to inhibit heparin-induced angiogenesis in vivo in mice. Basement membrane matrix (Matrigel®, Becton Dickinson Labware, Mountain View, Calif.) was thawed and maintained at 4° C. and angiogenic factors were added to the gel in the liquid state generally as described in Passaniti et al., 1992, Lab. Invest. 67: 519-528. Heparin sodium (Sigma, St. Louis, Mo.) was dissolved in sterile PBS to various concentrations ranging from 1,250-10,000 U/mL, and used in these experiments at 8,000 U/mL. Human recombinant basic fibroblast growth factor (bFGF; Sigma) was reconstituted into 1. % BSA in PBS to 25 μg/mL. A volume of 2.5 μL dissolved heparin solution and 4.0 μL recombinant bFGF were added to 0.5 mL Matrigel® mixture per mouse injection. Peptide-based constructs were added to this Matrigel® mixture at varying concentrations ranging from 0.5 to 50 μg/mL (final concentration) in 10 μL/0.5 mL Matrigel® aliquot per experimental animal. Ten μL sterile PBS was substituted for peptide-based constructs in Matrigel® aliquots injected into control animals.
Female C57BL/6J mice (Jackson Laboratory, Bar Barbor, Me.) at 6-8 weeks of age (maintained under NIH guidelines) were injected subcutaneously down the dorsal midline with 0.5 mL aliquots of Matrigel® prepared as described above. Ten days after injection, the Matrigel® gels were excised and placed in Drabkin's reagent (Sigma). Total protein and hemoglobin content can be determined for the gels stored in Drabkin's reagent after mechanical homogenization of the gels. Hemoglobin concentration was measured using Sigma Procedure #525 and reagents supplied by Sigma (St. Louis, Mo.) to be used with this procedure. If desired, total protein levels are determined using a microplate assay that is commercially embodied in a kit (DC Protein Assay, Bio-Rad, Richmond, Calif.).
Gels to be used for histological staining are formalin-fixed immediately after excision from the animals rather than being placed in Drabkin's reagent. Formalin-fixed gels are embedded in Tissue-Tek O.C.T. compound (Miles, Inc., Elkhart, Ind.) for frozen sectioning. Slides of frozen sections are stained with hematoxylin and eosin (as described by Humason, 1979, Animal Tissue Techniques, 4th Ed. W.H. Feeman & Co., San Francisco, Calif., Ch. 9, pp. 111-131). The effect of peptides are detected by microscopic examination of frozen stained sections for inhibition of angiogenesis relative to Matrigel® gel slices prepared without added peptides. The extent of angiogenesis inhibition is quantitated using the normalized amounts of hemoglobin found in BPI peptide-containing gel slices.
Data are presented as the means of triplicate determinations of hemoglobin concentrations from the excised gel (ISEM) with ten mice per group.

Row | Compound | Assay A: percent heparin neutralization relative to protamine (100%) [1] | Assay B: percent heparin neutralization relative to protamine (100%) [1] | antimicrobial activity [2] | LPS neutralization activity (LPS) | IC50 [3] | % Inhibition [4] | IC50 values, additional assays ([3]; HUVEC proliferation, purified constructs, said to be comparable to Table II (μg/mL))
1 | CC(C)C[C@@H](NC(=O)[C@H](N)CCCCN)C(=O)N[C@H](Cc1ccccc1)C(=O)N[C@H](CCCNC(=N)N)C(=O)N[C@H](Cc1cccc2ccccc12)C(=O)N[C@H](CCC(N)=O)C(=O)N[C@H](C)C(=O)N[C@H](CCCCN)C(=O)N[C@H](Cc1cccc2ccccc12)C(=O)N[C@H](CCCCN)C(N)=O [XMP.628, k-l-f-r-(naph-a)-q-a-k-(naph-a)-k] (H-[dK][dL][dF][dR][d1Nal][dQ][dA][dK][d1Nal][dK]-NH2) | 107% | 68% | highest antimicrobial activities | showed activity |  |  | 
2 | CC(C)C[C@@H](NC(=O)[C@H](N)CCCCN)C(=O)N[C@H](Cc1ccccc1)C(=O)N[C@H](CCCNC(=N)N)C(=O)N[C@H](Cc1cccc2ccccc12)C(=O)N[C@H](CCC(N)=O)C(=O)N[C@H](C)C(=O)N[C@H](CCCCN)C(=O)N[C@H](Cc1cccc2ccccc12)C(=O)N[C@H](CCCCN)C(=O)NCC(N)=O [XMP.627, k-l-f-r-(naph-a)-q-a-k-(naph-a)-k-g] (H-[dK][dL][dF][dR][d1Nal][dQ][dA][dK][d1Nal][dK]G-NH2; N-terminus assumed) | 98% | 62% | highest antimicrobial activities |  | 5.8 ± 0.7 µg/mL (≈ 3.95 µM) | 77.6% | 
3 | CC(C)C[C@@H](NC(=O)[C@H](N)CCCCN)C(=O)N[C@H](Cc1ccccc1)C(=O)N[C@H](CCCNC(=N)N)C(=O)N[C@H](Cc1cccc2ccccc12)C(=O)N[C@H](CCC(N)=O)C(=O)N[C@H](C)C(=O)N[C@H](CCCCN)C(=O)N[C@H](Cc1cccc2ccccc12)C(N)=O [XMP.629, k-l-f-r-(naph-a)-q-a-k-(naph-a)] (H-[dK][dL][dF][dR][d1Nal][dQ][dA][dK][d1Nal]-NH2; N-terminus assumed) | 69% | 49% | highest antimicrobial activities | showed activity |  | 30.8% | 
4 | CC[C@@H](C)[C@@H](NC(=O)[C@@H](CCCCN)NC(=O)[C@H](NC(=O)[C@@H](CO)NC(=O)CNC(=O)[C@@H](CCCCN)NC(=O)[C@@H](Cc1cccc2ccccc12)NC(=O)[C@@H](CCCCN)NC(=O)[C@@H](C)NC(=O)[C@@H](CCC(N)=O)NC(=O)[C@@H](Cc1cccc2ccccc12)NC(=O)[C@@H](CCCNC(=N)N)NC(=O)[C@@H](Cc1ccccc1)NC(=O)[C@@H](CC(C)C)NC(=O)[C@H](N)CCCCN)[C@H](C)CC)C(N)=O [XMP.394, k-l-f-r-(naph-a)-q-a-k-(naph-a)-k-g-s-i-k-i] (H-[dK][dL][dF][dR][d1Nal][dQ][dA][dK][d1Nal][dK]G[dS][dI][dK][dI]-NH2; N-terminus assumed) | 143% | 133% |  |  | 4.3 ± 0.5 µg/mL (≈ 2.25 µM) | 54.6% | 
5 | CC(C)C[C@@H](NC(=O)[C@H](N)CCCCN)C(=O)N[C@H](Cc1ccccc1)C(=O)N[C@H](CCCNC(=N)N)C(=O)N[C@H](Cc1cccc2ccccc12)C(=O)N[C@H](CCC(N)=O)C(=O)N[C@H](C)C(=O)N[C@H](CCCCN)C(N)=O [XMP.630, k-l-f-r-(naph-a)-q-a-k] (H-[dK][dL][dF][dR][d1Nal][dQ][dA][dK]-NH2; N-terminus and C-terminus assumed) | 2.3% | 0.5% |  |  | >25 µg/mL | 49.6% | > 50
6 | CC(C)C[C@@H](NC(=O)[C@H](N)CCCCN)C(=O)N[C@H](Cc1ccccc1)C(=O)N[C@H](CCCNC(=N)N)C(=O)N[C@H](Cc1cccc2ccccc12)C(=O)N[C@H](CCC(N)=O)C(=O)N[C@H](C)C(=O)N[C@H](CCCCN)C(=O)N[C@H](Cc1cccc2ccccc12)C(=O)N[C@H](CCCCN)C(=O)NCC(=O)N[C@H](CO)C(N)=O [XMP.626, k-l-f-r-(naph-a)-q-a-k-(naph-a)-k-g-s] (H-[dK][dL][dF][dR][d1Nal][dQ][dA][dK][d1Nal][dK]G[dS]-NH2) | 99% | 80% |  | showed activity |  |  | 
